Assay results published in US8178570B2, “Tie-2 modulators and methods of use” (Exelixis, Inc., priority 2003, dated 2012).

Biological target: Tie-2 (Homo sapiens, UniProt Q02763)
Assay: Tie-2 tyrosine kinase activity: kinase-dependent ATP consumption (pEY substrate, luciferase/luciferin chemiluminescence) or 33P-ATP incorporation into substrate
Type: biochemical
Conditions: Tie-2 (human enzyme) inhibition, Table 2, class symbols A-D
Summary of the method: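 Values are IC50 categories: A below 50 nM, B above 50 to 1000 nM, C above 1000 to below 10,000 nM, D 10,000 nM or more. They were measured by 33P-ATP phosphate transfer onto a generic substrate bound to the plate (scintillation), or by luminescent luciferase detection of ATP used with pEY.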

Sequence of Tie-2 (Q02763 23-1124): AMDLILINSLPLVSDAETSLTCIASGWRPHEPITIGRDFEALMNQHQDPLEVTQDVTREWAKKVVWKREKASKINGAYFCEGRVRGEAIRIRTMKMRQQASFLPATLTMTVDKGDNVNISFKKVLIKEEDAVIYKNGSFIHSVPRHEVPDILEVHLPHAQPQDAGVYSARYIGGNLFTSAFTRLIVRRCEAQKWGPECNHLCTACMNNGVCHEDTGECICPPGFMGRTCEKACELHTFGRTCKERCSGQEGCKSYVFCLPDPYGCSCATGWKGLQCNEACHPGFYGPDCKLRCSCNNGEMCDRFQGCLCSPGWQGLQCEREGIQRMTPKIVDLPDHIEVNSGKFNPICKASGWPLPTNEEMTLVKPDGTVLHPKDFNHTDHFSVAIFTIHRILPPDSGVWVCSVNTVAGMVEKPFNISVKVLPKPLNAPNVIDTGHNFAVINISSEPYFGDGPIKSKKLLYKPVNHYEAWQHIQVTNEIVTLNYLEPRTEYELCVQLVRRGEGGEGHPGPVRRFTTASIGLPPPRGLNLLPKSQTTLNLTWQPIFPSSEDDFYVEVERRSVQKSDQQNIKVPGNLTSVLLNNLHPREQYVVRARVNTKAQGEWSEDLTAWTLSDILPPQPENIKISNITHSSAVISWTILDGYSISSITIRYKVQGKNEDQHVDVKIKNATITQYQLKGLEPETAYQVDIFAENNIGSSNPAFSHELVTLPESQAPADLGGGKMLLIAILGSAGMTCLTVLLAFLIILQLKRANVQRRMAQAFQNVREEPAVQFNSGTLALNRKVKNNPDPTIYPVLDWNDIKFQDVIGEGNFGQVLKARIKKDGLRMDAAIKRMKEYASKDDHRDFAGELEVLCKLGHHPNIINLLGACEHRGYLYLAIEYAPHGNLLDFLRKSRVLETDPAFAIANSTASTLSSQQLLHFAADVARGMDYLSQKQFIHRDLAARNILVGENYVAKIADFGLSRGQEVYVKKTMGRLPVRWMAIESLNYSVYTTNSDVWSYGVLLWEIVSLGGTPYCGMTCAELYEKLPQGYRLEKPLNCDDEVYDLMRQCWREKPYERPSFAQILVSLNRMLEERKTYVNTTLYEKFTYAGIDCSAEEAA

| Compound | IC50 [µM] |
| --- | --- |
| COc1ccc(-c2nc(-c3ccncc3)nn2CCN(C(=O)Nc2cccc(F)c2)C2CCCC2)cc1Cl [Entry 134, N-(2-{5-[3-chloro-4-(methyloxy)phenyl]-3-pyridin-4-yl-1H-1,2,4-triazol-1-yl}ethyl)-N-cyclopentyl-N′-(3-fluorophenyl)urea] | 1 to 10 |
| COc1ccc(-c2nc(-c3ccncc3)nn2CCN(C(=O)Nc2ccc(Cl)cc2)C2CCCC2)cc1Cl [Entry 135, N-(2-{5-[3-chloro-4-(methyloxy)phenyl]-3-pyridin-4-yl-1H-1,2,4-triazol-1-yl}ethyl)-N′-(4-chlorophenyl)-N-cyclopentylurea] | ≥ 10 |
| COc1ccc(-c2nc(-c3ccncc3)nn2CCN(C(=O)Nc2ccc(C)cc2)C2CCCC2)cc1Cl [Entry 136, N-(2-{5-[3-chloro-4-(methyloxy)phenyl]-3-pyridin-4-yl-1H-1,2,4-triazol-1-yl}ethyl)-N-cyclopentyl-N′-(4-methylphenyl)urea] | ≥ 10 |
| COc1ccc(NC(=O)N(CCn2nc(-c3ccncc3)nc2-c2ccc(OC)c(Cl)c2)C2CCCC2)c(C)c1 [Entry 138, N-(2-{5-[3-chloro-4-(methyloxy)phenyl]-3-pyridin-4-yl-1H-1,2,4-triazol-1-yl}ethyl)-N-cyclopentyl-N′-[2-methyl-4-(methyloxy)phenyl]urea] | 1 to 10 |
| COc1ccc(-c2nc(-c3ccncc3)nn2CCN(C(=O)Nc2cc(C)ccc2C)C2CCCC2)cc1Cl [Entry 139, N-(2-{5-[3-chloro-4-(methyloxy)phenyl]-3-pyridin-4-yl-1H-1,2,4-triazol-1-yl}ethyl)-N-cyclopentyl-N′-(2,5-dimethylphenyl)urea] | 1 to 10 |
| COc1ccc(-c2nc(-c3ccncc3)nn2CCN(C(=O)Nc2cc(Cl)c(OC)cc2OC)C2CCCC2)cc1Cl [Entry 140, N′-[5-chloro-2,4-bis(methyloxy)phenyl]-N-(2-{5-[3-chloro-4-(methyloxy)phenyl]-3-pyridin-4-yl-1H-1,2,4-triazol-1-yl}ethyl)-N-cyclopentylurea] | ≥ 10 |
| COc1ccc(-c2nc(-c3ccncc3)nn2CCN(C(=O)Nc2cc(Cl)cc(Cl)c2)C2CCCC2)cc1Cl [Entry 141, N-(2-{5-[3-chloro-4-(methyloxy)phenyl]-3-pyridin-4-yl-1H-1,2,4-triazol-1-yl}ethyl)-N-cyclopentyl-N′-(3,5-dichlorophenyl)urea] | ≥ 10 |
| COc1ccc(-c2nc(-c3ccncc3)nn2CCN(C(=O)Nc2cccc(SC)c2)C2CCCC2)cc1Cl [Entry 143, N-(2-{5-[3-chloro-4-(methyloxy)phenyl]-3-pyridin-4-yl-1H-1,2,4-triazol-1-yl}ethyl)-N-cyclopentyl-N′-[3-(methylthio)phenyl]urea] | ≥ 10 |
| COc1ccc(-c2nc(-c3ccncc3)nn2CCN(C(=O)Nc2ccc(I)cc2)C2CCCC2)cc1Cl [Entry 146, N-(2-{5-[3-chloro-4-(methyloxy)phenyl]-3-pyridin-4-yl-1H-1,2,4-triazol-1-yl}ethyl)-N-cyclopentyl-N′-(4-iodophenyl)urea] | ≥ 10 |
| COc1ccc(-c2nc(-c3ccncc3)nn2CCN(C(=O)Nc2ccc(Oc3ccccc3)cc2)C2CCCC2)cc1Cl [Entry 147, N-(2-{5-[3-chloro-4-(methyloxy)phenyl]-3-pyridin-4-yl-1H-1,2,4-triazol-1-yl}ethyl)-N-cyclopentyl-N′-[4-(phenyloxy)phenyl]urea] | ≥ 10 |
| COc1ccc(-c2nc(-c3ccncc3)nn2CCN(C(=O)Nc2c(C)cc(C)cc2C)C2CCCC2)cc1Cl [Entry 148, N-(2-{5-[3-chloro-4-(methyloxy)phenyl]-3-pyridin-4-yl-1H-1,2,4-triazol-1-yl}ethyl)-N-cyclopentyl-N′-(2,4,6-trimethylphenyl)urea] | ≥ 10 |
| COc1ccc(-c2nc(-c3ccncc3)nn2CCN(C(=O)Nc2cc(Cl)ccc2C)C2CCCC2)cc1Cl [Entry 149, N-(2-{5-[3-chloro-4-(methyloxy)phenyl]-3-pyridin-4-yl-1H-1,2,4-triazol-1-yl}ethyl)-N′-(5-chloro-2-methylphenyl)-N-cyclopentylurea] | 1 to 10 |
| COc1ccc(-c2nc(-c3ccncc3)nn2CCN(C(=O)Nc2ccccc2SC)C2CCCC2)cc1Cl [Entry 154, N-(2-{5-[3-chloro-4-(methyloxy)phenyl]-3-pyridin-4-yl-1H-1,2,4-triazol-1-yl}ethyl)-N-cyclopentyl-N′-[2-(methylthio)phenyl]urea] | ≥ 10 |
| COc1ccc(-c2nc(-c3ccncc3)nn2CCN(C(=O)Nc2cccc(C(F)(F)F)c2)C2CCCC2)cc1Cl [Entry 155, N-(2-{5-[3-chloro-4-(methyloxy)phenyl]-3-pyridin-4-yl-1H-1,2,4-triazol-1-yl}ethyl)-N-cyclopentyl-N′-[3-(trifluoromethyl)phenyl]urea] | ≥ 10 |

The remaining lines, values ahead:

| IC50 [µM] | Compound |
| --- | --- |
| ≥ 10 | COc1ccc(-c2nc(-c3ccncc3)nn2CCN(C(=O)Nc2c(Cl)cc(Cl)cc2Cl)C2CCCC2)cc1Cl [Entry 137, N-(2-{5-[3-chloro-4-(methyloxy)phenyl]-3-pyridin-4-yl-1H-1,2,4-triazol-1-yl}ethyl)-N-cyclopentyl-N′-(2,4,6-trichlorophenyl)urea] |
| ≥ 10 | COc1ccc(-c2nc(-c3ccncc3)nn2CCN(C(=O)Nc2cc(Cl)ccc2OC)C2CCCC2)cc1Cl [Entry 142, N′-[5-chloro-2-(methyloxy)phenyl]-N-(2-{5-[3-chloro-4-(methyloxy)phenyl]-3-pyridin-4-yl-1H-1,2,4-triazol-1-yl}ethyl)-N-cyclopentylurea] |
| ≥ 10 | COc1ccc(-c2nc(-c3ccncc3)nn2CCN(C(=O)Nc2cc(C)cc(C)c2)C2CCCC2)cc1Cl [Entry 144, N-(2-{5-[3-chloro-4-(methyloxy)phenyl]-3-pyridin-4-yl-1H-1,2,4-triazol-1-yl}ethyl)-N-cyclopentyl-N′-(3,5-dimethylphenyl)urea] |
| ≥ 10 | COc1ccc(-c2nc(-c3ccncc3)nn2CCN(C(=O)Nc2cc(C)ccc2OC)C2CCCC2)cc1Cl [Entry 145, N-(2-{5-[3-chloro-4-(methyloxy)phenyl]-3-pyridin-4-yl-1H-1,2,4-triazol-1-yl}ethyl)-N-cyclopentyl-N′-[5-methyl-2-(methyloxy)phenyl]urea] |
| 1 to 10 | COc1ccc(-c2nc(-c3ccncc3)nn2CCN(C(=O)Nc2ccc(Cl)cc2C)C2CCCC2)cc1Cl [Entry 150, N-(2-{5-[3-chloro-4-(methyloxy)phenyl]-3-pyridin-4-yl-1H-1,2,4-triazol-1-yl}ethyl)-N′-(4-chloro-2-methylphenyl)-N-cyclopentylurea] |
| ≥ 10 | COc1ccc(-c2nc(-c3ccncc3)nn2CCN(C(=O)Nc2c(C)cccc2Cl)C2CCCC2)cc1Cl [Entry 151, N-(2-{5-[3-chloro-4-(methyloxy)phenyl]-3-pyridin-4-yl-1H-1,2,4-triazol-1-yl}ethyl)-N′-(2-chloro-6-methylphenyl)-N-cyclopentylurea] |
| 0.05 to 1 | COc1ccc(-c2nc(-c3ccncc3)nn2CCN(C(=O)Nc2cccc(Cl)c2C)C2CCCC2)cc1Cl [Entry 152, N-(2-{5-[3-chloro-4-(methyloxy)phenyl]-3-pyridin-4-yl-1H-1,2,4-triazol-1-yl}ethyl)-N′-(3-chloro-2-methylphenyl)-N-cyclopentylurea] |
| ≥ 10 | COc1ccc(-c2nc(-c3ccncc3)nn2CCN(C(=O)Nc2ccc(F)c(Cl)c2)C2CCCC2)cc1Cl [Entry 153, N′-(3-chloro-4-fluorophenyl)-N-(2-{5-[3-chloro-4-(methyloxy)phenyl]-3-pyridin-4-yl-1H-1,2,4-triazol-1-yl}ethyl)-N-cyclopentylurea] |
